# According to patent US20190151304A1, “METHODS AND PHARMACEUTICAL COMPOSITIONS FOR THE TREATMENT OF AUTOIMMUNE INFLAMMATORY” (INSERM (INSTITUT NATIONAL DE LA SANTÉ ET DE LA RECHERCJAE …, priority 2016, published 2019):
# No end group written: not given here.
# Experiments:
# DSS-induced colitis mice = DSS-induced colitis mice model (Disease Activity Index, colon length); format: in vivo, Balb/c mice
# Description: FIG. 2: OXA ameliorates the DAI (weight and colitis score) of DSS-induced colitis mice. Mice were orally treated with 5% DSS for 7 days in the presence or in the absence of daily intraperitoneal injection of OxA (0.22 μmoles/kg). Left, determination of gain or loss of weight in the absence of DSS treatment (Control,▴), in the presence of DSS treatment (DSS,▪) and in the presence of DSS associated to OxA treatment (DSS+OxA,●). Right, evaluation of Disease Activity Index (DAI) scored by measuring weight, length of colon, diarrhea and blood presence in the stool in DSS untreated control mice (Control,A), in DSS treated mice (DSS,▪) and in DSS treated mice associated to OxA treatment (DSS+OxA,●).
# FIG. 14: Effect of daily ip inoculation of OxA, Suvorexant and Almorexant on the length of colon from DSS—(dextran sulfate sodium) treated mice mimicking the acute ulcerative colitis disease. A. Mice were treated with 5% (w/v) DSS in drinking water and daily injected with 20 μg of OxA (OXA IP), 20 μg of Suvorexant (Suvo) or 20 μg of Almorexant (Almo). Control (wt) or treated DSS mice (DSS) were daily injected with 100 μl PBS. After one week of treatment, mice were sacrificed and the length of colon which represented a good marker of inflammation state, was measured. […] B. quantification of colon length from 5 different DSS-treated mice injected with OxA (DSS+OXA IP), Almorexant (DSS+Almo), Suvorexant (DSS+Suvo) or not injected (WT and DSS). NS, no significant; *, p<0.05; ** p<0.001
# Based on these observations, we have investigated the effect of Orexin A (OxA) on acute inflammation in mice treated with Dextran Sulfate Sodium (DSS). OxA was preferentially chosen in these experiments since the presence of two disulphide bridges confers it more stability. DSS induces acute colitis characterized by weight loss, bloody diarrhea, intestinal ulcerations and infiltrations with granulocytes.
# DSS-induced colitis mice models: Balb/c mice were orally treated by 5% (w/v) of Dextran Sulfate Sodium (DSS) for 7 days. Orexin treatment was carried out in DSS treated mice by daily intraperitoneal injection of OxA (0.22 μmoles/kg) for 7 days. Weight and colitis symptoms (diarrhea, blood in the stool . . . ) for each mouse was daily measured. After 7 days of treatment, animals were sacrificed and colons were resected to further analyses (size, histological aspect, cytokine assays).
# The inventors have thus investigated the effect of daily intraperitoneal inoculation of OxA, Suvorexant and Almorexant in the experimental context of EXAMPLE 1 (colitis). In particular they investigated the effects of the drugs on the length of colon from DSS-(dextran sulfate sodium) treated mice mimicking the acute ulcerative colitis disease. […]
# [1] = test system: cerulein-induced chronic pancreatitis mice; assay: Chronic pancreatitis mice model induced by cerulein; format: in vivo
# Description: FIG. 9. Pancreatic lymphocyte infiltration determined by immunostaining of CD45+ cells. Values were expressed as percentage of stained surface. **, p<0.01
# FIG. 10: Amylase activity in blood samples of control mice, cerulein-induced mice and cerulein-induced mice treated with OxA. *, p<0.05; ***, p<0.001 and NS, non significant.
# We have investigated the effect of orexin A (OxA) on chronic pancreatitis mice model induced by supraphysiologic doses of cerulein (3 intraperitoneal injections/week at 100 μg/kg). […] In mice treated by OxA (2 intraperitoneal injections/week at 1.40 μmol/Kg) the lesions induced by cerulein improved. OxA-treated mice had lower number of acino-ductal metaplasia.
substance,measurement,setting,value
"OxA: neuropeptide, endogenous ligand of OX1R and OX2R, with two disulphide bridges (QPLPDCCRQKTCSCRLYELLHGAGNHAAGILTL; disulfide (positions not given here); ends not checked; also: two disulphide bridges, pairing not given here; UniProt O43612 34-66, looked up)",Protection from DSS induced acute ulcerative colitis (length of colon),"DSS-induced colitis mice; 5% DSS in drinking water, 20 μg daily ip, one week",protect mice from DSS induced acute ulcerative colitis disease
same,"Disease Activity Index (DAI) scored by measuring weight, length of colon, diarrhea and presence of blood in the stool","DSS-induced colitis mice; 5% DSS orally 7 days, daily intraperitoneal OxA 0.22 μmoles/kg",ameliorates
same,Pancreatic lymphocyte infiltration (anti-CD45 immunohistochemistry),"[1]; OxA 1.40 μmol/Kg, quantitative imaging analysis, 18% in OxA-untreated mice",6 % of the pancreatic surface
same,Pancreatic fibrosis on Picrosirius staining,"[1]; OxA 1.40 μmol/Kg, quantitative imaging analysis, 40% in OxA-untreated mice",12 % of the pancreatic surface
same,Number of acino-ductal metaplasia,[1]; OxA 2 intraperitoneal injections/week at 1.40 μmol/Kg,lower number
same,Lesions induced by cerulein (histological analysis of the pancreas),"[1]; OxA 2 intraperitoneal injections/week at 1.40 μmol/Kg, 3 weeks of cerulein",improved
same,Amylase activity in blood samples,[1]; cerulein-induced mice treated with OxA,significantly reduced
